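These data come from cells grown in 96-well plates and exposed to compound for 48 hours at five concentrations. Abbreviation: GI50, concentration required for 50% inhibition of growth. TGI: concentration producing complete growth inhibition.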
Columns and labels:
Assay in all cases: NCI anticancer screen, dose series, 48 h
[1] = system: IGROV1 ovarian
[2] = system: SK-OV-3 ovarian
[3] = system: OVCAR-3 ovarian
[4] = system: HS 578T breast
[5] = system: NCI-H522 lung
[6] = system: SF-295 CNS
[7] = system: CCRF-CEM leukemia
[8] = system: KM12 colon
[9] = system: NCI/ADR-RES ovarian
[10] = system: HL-60(TB) leukemia
[11] = system: TK-10 renal
[12] = system: MDA-MB-231 breast
[13] = system: HOP-62 NSCLC
[14] = system: RPMI-8226 leukemia
[15] = system: NCI-H23 lung
[16] = system: SK-MEL-5 melanoma
[17] = system: SNB-19 CNS
[18] = system: CAKI-1 renal
[19] = system: NCI-H460 lung
[20] = system: MCF7 breast
[21] = system: SR leukemia
[22] = system: UO-31 renal
[23] = system: OVCAR-4 ovarian
[24] = system: OVCAR-5 ovarian
[25] = system: EKVX NSCLC
[26] = system: BT-549 breast
[27] = system: SNB-75 CNS
[28] = system: UACC-62 melanoma
[29] = system: UACC-257 melanoma
[30] = system: SK-MEL-28 melanoma
[31] = system: HCT-15 colon
[32] = system: HT29 colon
[33] = system: PC-3 prostate
[34] = system: MDA-MB-435
[35] = system: SW-620 colon
[36] = system: NCI-H226 lung
[37] = system: M14 melanoma
[38] = system: HOP-92 NSCLC
[39] = system: HCT-116 colon
[40] = system: COLO 205 colon
[41] = system: K-562 leukemia
[42] = system: ACHN renal
[43] = system: SF-539 CNS
[44] = system: A549 NSCLC
[45] = system: MOLT-4 leukemia
[46] = system: SK-MEL-2 melanoma
[47] = system: 786-0 renal
[48] = system: HCC-2998 colon
[49] = system: RXF 393 renal
[50] = system: U251 CNS
[51] = system: SF-268 CNS
[52] = system: MALME-3M melanoma
[53] = system: OVCAR-8 ovarian
[54] = system: SN12C renal
[55] = system: DU-145 prostate
[56] = system: A498 renal
[57] = system: LOX IMVI melanoma

In the case of `O=S(=O)(O)c1cc(N=Nc2c(O)ccc3ccccc23)c2c(S(=O)(=O)O)cccc2c1`, the TGI [1] was greater than 100 µM, the TGI [2] was greater than 100 µM and the TGI [3] was greater than 100 µM. For the same compound, the TGI [4] was greater than 100 µM, the TGI [5] was greater than 100 µM and the TGI [6] was greater than 100 µM. For the same compound, the TGI [7] was greater than 100 µM, the TGI [8] was greater than 100 µM and the TGI [9] was greater than 100 µM. The TGI [10] was greater than 100 µM, the TGI [11] was greater than 100 µM and the TGI [12] was greater than 100 µM. The TGI [13] was greater than 100 µM, the TGI [14] was greater than 100 µM and the TGI [15] was greater than 100 µM. The TGI [16] was greater than 100 µM, the TGI [17] was greater than 100 µM and the TGI [18] was greater than 100 µM. For the same compound, the TGI [19] was greater than 100 µM, the TGI [20] was greater than 100 µM and the TGI [21] was greater than 100 µM. For the same compound, the TGI [22] was greater than 100 µM, the TGI [23] was greater than 100 µM and the TGI [24] was greater than 100 µM. For the same compound, the TGI [25] was greater than 100 µM, the TGI [26] was greater than 100 µM and the TGI [27] was greater than 100 µM. It also gave a TGI [28] greater than 100 µM, a TGI [29] greater than 100 µM and a TGI [30] greater than 100 µM. It also gave a TGI [31] greater than 100 µM, a TGI [32] greater than 100 µM and a TGI [33] greater than 100 µM. For the same compound, the TGI [34] was greater than 100 µM, the TGI [35] was greater than 100 µM and the TGI [36] was greater than 100 µM. For the same compound, the TGI [37] was greater than 100 µM, the TGI [38] was greater than 100 µM and the TGI [39] was greater than 100 µM. For the same compound, the TGI [40] was greater than 100 µM, the TGI [41] was greater than 100 µM and the TGI [42] was greater than 100 µM. It also gave a TGI [43] greater than 100 µM, a TGI [44] greater than 100 µM and a TGI [45] greater than 100 µM. It also gave a TGI [46] greater than 100 µM, a TGI [47] greater than 100 µM and a TGI [48] greater than 100 µM. For the same compound, the TGI [49] was greater than 100 µM, the TGI [50] was greater than 100 µM and the TGI [51] was greater than 100 µM. The TGI [52] was greater than 100 µM and the TGI [53] was greater than 100 µM.

`CCCN1C(=O)/C(=C/c2cccc(O)c2)SC1=Nc1ccccc1` gave a GI50 [1] of 20 µM, a TGI [1] of 44.4 µM and a GI50 [3] of 17.7 µM. It also gave a TGI [3] of 32.3 µM, a GI50 [4] of 16.7 µM and a TGI [4] of 34.7 µM. For the same compound, the GI50 [5] was 22.3 µM, the TGI [5] was 60 µM and the GI50 [6] was 19 µM. It also gave a TGI [6] of 83.8 µM, a GI50 [8] of 11.9 µM and a TGI [8] of 26.9 µM. For the same compound, the GI50 [9] was 17.3 µM, the TGI [9] was 33.1 µM and the GI50 [10] was 30.8 µM. The TGI [10] was greater than 100 µM, the GI50 [11] was 6.7 µM and the TGI [11] was 24 µM. It also gave a GI50 [54] of 15.7 µM, a TGI [54] of 29.1 µM and a GI50 [12] of 11.4 µM. The TGI [12] was 24 µM, the GI50 [14] was 14.5 µM and the TGI [14] was 34.3 µM. The GI50 [15] was 19 µM, the TGI [15] was 34.3 µM and the GI50 [16] was 19.6 µM. It also gave a TGI [16] of 35.2 µM, a GI50 [55] of 13 µM and a TGI [55] of 25.6 µM. It also gave a GI50 [17] of 18 µM, a TGI [17] of 34.5 µM and a GI50 [18] of 22 µM. The TGI [18] was 38 µM, the GI50 [19] was 14.8 µM and the TGI [19] was 37.7 µM. For the same compound, the GI50 [20] was 24.4 µM, the TGI [20] was greater than 100 µM and the GI50 [21] was 17.5 µM. For the same compound, the TGI [21] was greater than 100 µM, the GI50 [22] was 17.4 µM and the TGI [22] was 34.4 µM. It also gave a GI50 [23] of 23.2 µM, a TGI [23] of 58.4 µM and a GI50 [24] of 16.8 µM. The TGI [24] was 31 µM, the GI50 [25] was 19.2 µM and the TGI [25] was 33.9 µM. The GI50 [26] was 17.1 µM, the TGI [26] was 30.8 µM and the GI50 [27] was 15.1 µM. The TGI [27] was 32.9 µM, the GI50 [28] was 16.4 µM and the TGI [28] was 29.9 µM. For the same compound, the GI50 [29] was 18.8 µM, the TGI [29] was 36 µM and the GI50 [30] was 21.1 µM. The TGI [30] was 42.5 µM, the GI50 [31] was 14.8 µM and the TGI [31] was 29.6 µM. It also gave a GI50 [32] of 17.3 µM, a TGI [32] of 33.8 µM and a GI50 [33] of 16.9 µM. For the same compound, the TGI [33] was 33.1 µM, the GI50 [34] was 22.7 µM and the TGI [34] was 51.3 µM. For the same compound, the GI50 [35] was 18.5 µM, the TGI [35] was 34.4 µM and the GI50 [56] was 2.7 µM. The TGI [56] was 17.1 µM, the GI50 [57] was 11.8 µM and the TGI [57] was 25.5 µM. It also gave a GI50 [36] of 20.8 µM, a TGI [36] of 41.2 µM and a GI50 [37] of 29 µM. The TGI [37] was 67.8 µM, the GI50 [39] was 38.3 µM and the TGI [39] was greater than 100 µM. The GI50 [40] was 18.4 µM, the TGI [40] was 41.5 µM and the GI50 [41] was 6.72 µM. The TGI [41] was greater than 100 µM, the GI50 [42] was 16.4 µM and the TGI [42] was 31.2 µM. For the same compound, the GI50 [43] was 18.8 µM, the TGI [43] was 34 µM and the GI50 [44] was 15.1 µM. It also gave a TGI [44] of 31.7 µM, a GI50 [45] of 38 µM and a TGI [45] greater than 100 µM. The GI50 [46] was 16.6 µM, the TGI [46] was 36.5 µM and the GI50 [47] was 20.7 µM. The TGI [47] was 49.9 µM, the GI50 [49] was 17.6 µM and the TGI [49] was 36.9 µM. It also gave a GI50 [50] of 14.1 µM, a TGI [50] of 28.2 µM and a GI50 [51] of 22.7 µM. For the same compound, the TGI [51] was 57.3 µM, the GI50 [53] was 19 µM and the TGI [53] was 37.9 µM.

`O=S(=O)(O)c1ccc(N=Nc2ccc(N=Nc3c(O)ccc4ccccc34)c(S(=O)(=O)O)c2)cc1` gave a TGI [1] greater than 100 µM, a TGI [2] greater than 100 µM and a TGI [3] greater than 100 µM. For the same compound, the TGI [4] was greater than 100 µM, the TGI [5] was greater than 100 µM and the TGI [6] was greater than 100 µM. For the same compound, the TGI [7] was greater than 100 µM, the TGI [8] was greater than 100 µM and the TGI [9] was greater than 100 µM. It also gave a TGI [10] greater than 100 µM, a TGI [11] greater than 100 µM and a TGI [12] greater than 100 µM. The TGI [13] was greater than 100 µM, the TGI [14] was greater than 100 µM and the TGI [15] was greater than 100 µM. The TGI [16] was greater than 100 µM, the TGI [17] was greater than 100 µM and the TGI [18] was greater than 100 µM. The TGI [19] was greater than 100 µM, the TGI [20] was greater than 100 µM and the TGI [21] was greater than 100 µM. For the same compound, the TGI [22] was greater than 100 µM, the TGI [24] was greater than 100 µM and the TGI [25] was greater than 100 µM. It also gave a TGI [26] greater than 100 µM, a TGI [27] greater than 100 µM and a TGI [28] greater than 100 µM. It also gave a TGI [29] greater than 100 µM, a TGI [30] greater than 100 µM and a TGI [31] greater than 100 µM. The TGI [32] was greater than 100 µM, the TGI [33] was greater than 100 µM and the TGI [34] was greater than 100 µM. It also gave a TGI [35] greater than 100 µM, a TGI [36] greater than 100 µM and a TGI [37] greater than 100 µM. It also gave a TGI [38] greater than 100 µM, a TGI [39] greater than 100 µM and a TGI [40] greater than 100 µM. The TGI [41] was greater than 100 µM, the TGI [42] was greater than 100 µM and the TGI [43] was greater than 100 µM. It also gave a TGI [44] greater than 100 µM, a TGI [45] greater than 100 µM and a TGI [46] greater than 100 µM. The TGI [47] was greater than 100 µM, the TGI [48] was greater than 100 µM and the TGI [49] was greater than 100 µM. The TGI [50] was greater than 100 µM, the TGI [51] was greater than 100 µM and the TGI [52] was greater than 100 µM. For the same compound, the TGI [53] was greater than 100 µM.

Reference: PubChem BioAssay (NCI)
